Measured values: patent EP3338775B1, “USE OF BUTYLIDENEPHTHALIDE” (Everfront Biotech Inc., priority 2015, dated 2017)

What was measured:
[1] = tested on: E-cadherin, TGFβ-1 and Slug; test: Western blotting of EMT-related proteins in brain CSCs CD133+; assay type: cell-based; conditions: BP 0, 12.5, 25, 50, 62.5 and 75 µg/ml for 24 hours, Figure 12
Description: In has been known that at the start of the epithelial-mesenchymal transition (EMT) of cancer stem cells, the expression of E-cadherin would reduce and the aggregation force between cancer stem cells would decrease, so that the cancer stem cells would gain great invasion and migration capacity and depart from the primary tumor, and thus, could metastasize. Brain CSCs ^CD133+ was treated with different concentrations (0, 12.5, 25, 50, 62.5 and 75 µg/ml) of BP for 24 hours, and then, proteins were extracted from the cells to conduct Western blotting to determine the expressions of E-cadherin, TGFβ-1 (with an ability to induce EMT) and Slug (i.e., a member of Snail family transcriptional repressors with a property of promoting the metastasis of cancer cells) proteins in the BP-treated brain CSCs ^CD133+.

[2] = tested on: Axl and Gas6 proteins, Axl gene; test: Western blotting and RT-PCR of Axl and Gas6 in brain CSCs CD133+; assay type: cell-based; conditions: BP 0, 12.5, 25, 50, 62.5 and 75 µg/ml for 24 hours, Figures 9A, 9B
Description: It has been known that the expression of Axl (i.e., a receptor tyrosine kinase) is related to the ability of cancer stem cells in proliferation, anti-apoptosis, migration and invasion. Brain CSCs ^CD133+ was treated with different concentrations (0, 12.5, 25, 50, 62.5 and 75 µg/ml) of BP for 24 hours, and then, proteins and total RNA were extracted from the cells to conduct Western blotting and reverse transcriptase-polymerase chain reaction (RT-PCR) to determine the expressions of Axl and Gas6 (i.e., a ligand of Axl) proteins and the expression of Axl gene in the BP-treated brain CSCs ^CD133+.

[3] = tested on: HNC-TIC-like oral stem cells stably transfected with GFP-tagged constructs; test: Tumor initiating activity animal experiment, subcutaneous GFP-tagged HNC-TIC-like oral stem cells in nude mice; assay type: in vivo, BALB/c nu/nu mice
Description: In this research, the effect of BP on inhibiting the tumor initiating activity of cancer stem cells was further investigated by animal experiments. First, 5-6 weeks old BALB/c nu/nu mice (weight 18-22 g) were bred under the same condition for 4 weeks. Then, HNC-TIC-like oral stem cells stably transfected with GFP-tagged constructs were injected (1×10^4 cells/0.1 mL/mouse) subcutaneously into the axilla of mice. After tumors reached 100 mm^3, mice were grouped into one control group and two experimental groups (three groups in total, n=3 per group). Then, one experimental group was injected daily with 100 mg/kg of BP for 6 days and another experimental group was injected daily with 200 mg/kg of BP for 6 days. The control group was injected daily with a vehicle (without BP) for 6 days. Ten days after the injection of BP or vehicle, the length and width were measured every 2 days (22 days in total), and then, the average tumor volume was calculated according to the following Formula 1. At the same time, the GFP signal (i.e., green fluorescence) of each group was detected and photographed by the IVIS Imaging system. The GFP intensity of each group was analyzed by Image-Pro Plus software. [length×width^2]/2((unit:mm)^3) [formula]

Structure (SMILES): CCCC=C1OC(=O)c2ccccc21 [BP, butylidenephthalide]
- expression of E-cadherin protein [1]: significantly increased
- expressions of TGFβ-1 and Slug proteins [1]: significantly decreased
- expressions of Axl and Gas6 proteins and the expression of Axl gene [2]: significantly decreased
- GFP intensity ([3]; 100 mg/kg and 200 mg/kg groups, injected daily for 6 days, compared to control group, Figures 16C, 16D): significantly decreased
- tumor volume ([3]; 100 mg/kg and 200 mg/kg groups, injected daily for 6 days, over a period of time after BP injection, Figure 16B): decreased
- body weight of mice ([3]; 100 mg/kg or 200 mg/kg of BP injected daily for 6 days, Figure 16A): didn't change significantly
